Measurements taken from patent US20240140931A1, “TRICYCLIC COMPOUNDS AND USES THEREOF” (HUTCHMED LIMITED, priority 2021, published 2024).

How the values were obtained:
[1] = biological target: Human full-length SHP2 recombinant protein (Homo sapiens (Human), UniProt Q06124); experiment: Assay of full-length SHP2 phosphatase activity; type: biochemical; conditions: DiFMUP substrate, with activating peptide
Protocol: Example 2 Assay of Full-Length SHP2 Phosphatase Activity
1. Reagents and Materials • Human full-length SHP2 recombinant protein: BPS Bioscience, Cat #79018; • SHP2 substrate DiFMUP (1 mM): BPS Bioscience, Cat #79769; • SHP2 activating peptide (100 μM): BPS Bioscience, Cat #79319-2; • DTT: Merck, Cat #DTT-RO; • 384-well plate: Corning, Cat #3575; • 96-well plate: Thermo Fisher Scientific, Cat #249952; • Instrument: EnVision 2104, PerkinElmer.
2. Preparation of Reaction Solutions
The test compound was dissolved in DMSO and diluted with DMSO to 100.0 μM, and the compound was further 3-fold diluted with DMSO to: 100.00, 33.33, 11.11, 3.70, 1.23, 0.41, 0.14 and 0.05 μM.
3. Experimental Steps • To the corresponding wells of the 384-well plate was added 2.5 μL of 4× test compound or 2.5 μL of 4% DMSO solution, and centrifugation was carried out at 1000 rpm for 30 seconds. • To the test compound well and positive control well was added 2.5 μL of 4× mixed solution of SHP2 enzyme/activating peptide while to the negative control well was added 2.5 μL of 1× enzymatic reaction buffer; centrifugation was carried out at 1000 rpm for 30 seconds and incubation was carried out at room temperature for 30 minutes. • To each well was added 5 μL of 2×DiFMUP substrate to initiate the enzymatic reaction, then the plate was transiently oscillated and centrifuged at 1000 rpm for 30 seconds, and the 384-well plate was sealed with a sealing membrane and incubated at 25° C. on a low-speed shaker (100 rpm) in the dark for 60 minutes. • The fluorescence value (relative fluorescence units, RFU) of each well was detected on EnVision2104 (excitation: 355 nm, emission: 460 nm).
wherein • the RFU of compound well refers to the fluorescence reading at 460 nm of the well containing the test compounds; • the RFU of negative control well refers to the fluorescence reading at 460 nm of the background well containing 1% DMSO and the enzymatic reaction buffer; • the RFU of positive control well refers to the fluorescence reading at 460 nm of the well containing 1% DMSO and the mixed solution of SHP2 enzyme/activating peptide.
(§1) IC50 values were calculated following formula 205: y=A+((B−A)/(1+((C/X)^D))), by using the XL-Fit 5.0 software.

[2] = system: pERK1/2 (Thr202/Tyr204) in Miapaca2 cells; experiment: Assay of intracellular pERK1/2 (Thr202/Tyr204) phosphorylation; type: cell-based
Protocol: Example 3 Assay of Intracellular pERK1/2 (Thr202/Tyr204) Phosphorylation
1. Reagents and Materials • pERK1/2 (Thr202/Tyr204) HTRF kit: Cisbio, Cat #64ERKPEH; • Cell line: Miapaca2, ATCC, CRL-1420; • OptiPlate™-384-well plate: PerkinElmer, Cat #6007299; • 96-well plate: Corning, Cat #353072; • Instrument: EnVision2104, PerkinElmer.
2. Preparation of Reaction Solutions • The test compound was dissolved in DMSO and diluted with DMSO to 600.0 μM, and the compound was further 3-fold diluted with DMSO to: 600.0, 200.0, 66.7, 22.2, 7.4, 2.5, 0.82 and 0.27 μM. Then 10 μL of the compound at different dilution concentrations was added to 190 μL of a DMEM medium to prepare a 10× test compound, wherein DMSO was at the concentration of 5% (DMSO was at the final concentration of 0.5%). • 1× cell lysis buffer: 4× cell lysis stock solution (provided by the kit) was diluted 4-fold with deionized water, and then 1% 100× blocking stock solution (provided by the kit) was added thereto. • pERK1/2 detection solution (prepared just before use): the pERK1/2 d2 antibody (provided by the kit) and pERK1/2 Cryptate antibody (provided by the kit) were diluted with the detection solution (provided by the kit) at a ratio of 1:1:38.
3. Experimental Steps • Miapaca2 cells were inoculated into a 96-well plate at a density of 10000 cells/well at 90 μL/well and cultured in a cell incubator at 5% CO2 and 37° C. overnight. • 10 μL of 10× test compound was added to the 90 μL cell culture 96-well plate; to the cell positive control well was added 10 μL of 5% DMSO culture solution; and the plate was cultured in a cell incubator at 5% CO2 and 37° C. for 2 hours. • The medium in the 96-well plate was removed; 50 μL of 1× cell lysis buffer was added to each well; the plate was placed in a microplate shaker; and lysis under shaking was carried out at 900 rpm at room temperature for 1 hour. • 16 μL of the lysis buffer in the 96-well plate was taken and transferred to a 384-well plate, and centrifugation was carried out at 1000 rpm for 30 seconds; then 4 μL of pERK1/2 detection solution was added to each well and centrifugation was carried out at 1000 rpm for 30 seconds; and the 384-well plate was sealed with a sealing membrane and incubated at 25° C. on a low-speed shaker (100 rpm) in the dark for 2 hours. • The fluorescence value (relative fluorescence units, RFU) of each well was detected on EnVision2104 (emission 1: 665 nm, emission 2: 615 nm).
wherein • the fluorescence ratio of compound well refers to the fluorescence ratio of the well containing the test compounds; • the fluorescence ratio of negative control well refers to the fluorescence ratio of the background containing the cell lysis buffer and no Miapaca2 cells; • the fluorescence ratio of positive control well refers to the fluorescence ratio of the well containing 0.5% DMSO and Miapaca2 cells.
as §1

[3] = Homo sapiens, MIA PaCa-2, 2 h, pERK1/2 (Thr202/Tyr204) HTRF
[4] = pERK1/2 (Thr202/Tyr204) HTRF, 2 hours

SMILES | IC50 [1] [µM] | IC50 [2, 3] [µM] | IC50 [2, 4] [µM] | IC50 ([2]; Homo sapiens, MIA PaCa-2, pERK1/2 (Thr202/Tyr204) HTRF, 2 hours) [µM]
CC#Cc1ccc2c(c1)[C@@H](N)C1(CCN(c3ncc(Sc4ccnc(N)c4Cl)c(N)n3)CC1)C2 [Compound 215] | 0.025 | 0.167 |  | 
C#Cc1ccc2c(c1)[C@@H](N)C1(CCN(c3cc(=O)n(-c4cccc(Cl)c4Cl)c(C(F)(F)F)n3)CC1)C2 [Compound 121] | > 1 | > 1 |  | 
CNC(=O)C#Cc1cc2c(cc1F)CC1(CCN(c3nc(N)c(Sc4ccnc(N)c4Cl)nc3Cl)CC1)[C@@H]2N [Compound 223] | 0.004 | 0.023 |  | 
C#Cc1ccc2c(c1)[C@@H](N)C1(CCN(c3nc(C)n(-c4ccc(F)cc4Cl)c(=O)c3C)CC1)C2 [Compound 54] | 0.003 |  | 0.036 | 
C#Cc1ccc2c(c1)[C@@H](N)C1(CCN(c3cc(=O)n(-c4cccc(OC)c4Cl)c(C)n3)CC1)C2 [Compound 90] | 0.0011 |  | 0.053 | 
C#Cc1ccc2c(c1)[C@@H](N)C1(CCN(c3ncc(Sc4ccnc(N)n4)c4nccn34)CC1)C2 [Compound 27] | 0.001 | 0.011 |  | 
C#Cc1ccc2c(c1)[C@@H](N)C1(CCN(c3cc(=O)n(-c4ccc(F)c(Cl)c4Cl)c(C)n3)CC1)C2 [Compound 69] | 0.005 |  | 0.066 | 
COCC#Cc1ccc2c(c1)[C@@H](N)C1(CCN(c3cc(=O)n(-c4ccc(F)c(OC)c4F)c(C)n3)CC1)C2 [Compound 82] | 0.002 | 0.043 |  | 
C#Cc1cc2c(cc1F)CC1(CCN(c3cc(=O)n(-c4cccc(Cl)c4Cl)c(C)n3)CC1)[C@@H]2N [Compound 228] | 0.203 | > 1 |  | 
COCC#Cc1ccc2c(c1)[C@@H](N)C1(CCN(c3ncc(Sc4ccnc(C)n4)c4nccn34)CC1)C2 [Compound 132] | 0.003 | 0.009 |  | 
C#Cc1ccc2c(c1)[C@@H](N)C1(CCN(c3ncc(Sc4ccnc(N)n4)c(N)n3)CC1)C2 [Compound 213] | 0.068 | 0.447 |  | 
Cc1nc(N2CCC3(CC2)Cc2ccc(C#CCN(C)C)cc2[C@H]3N)cc(=O)n1-c1cccc(Cl)c1Cl [Compound 52] |  | 0.037 |  | 
C#Cc1ccc2c(c1)[C@@H](N)C1(CCN(c3cc(=O)n(-c4ccc(C#N)cc4Cl)c(C)n3)CC1)C2 [Compound 94] | 0.007 | 0.155 |  | 
C#Cc1ccc2c(c1)[C@@H](N)C1(CCN(c3cnc(Sc4ccnc(N)n4)c(N)n3)CC1)C2 [Compound 126] | 0.002 | 0.042 |  | 
C#Cc1ccc2c(c1)[C@@H](N)C1(CCN(c3cc(=O)n(-c4cc(Cl)ccc4Cl)c(C)n3)CC1)C2 [Compound 73] | 0.253 | > 1 |  | 
C#Cc1ccc2c(c1)[C@@H](N)C1(CCN(c3cc(=O)n(-c4cc(OC)ccc4Cl)c(C)n3)CC1)C2 [Compound 58] |  |  | 0.26 | 
COCC#Cc1ccc2c(c1)[C@@H](N)C1(CCN(c3nc(C)n(-c4cccc(Cl)c4Cl)c(=O)c3F)CC1)C2 [Compound 169] | 0.006 | 0.125 |  | 
C#Cc1ccc2c(c1)OC1(CCN(c3cc(=O)n(-c4cccc(Cl)c4Cl)c(C)n3)CC1)[C@@H]2N (atropisomer, axis not shown) [Compound 28] | > 1 |  |  | 
Cc1nc(N2CCC3(CC2)Cc2ccc(SC4COC4)cc2[C@H]3N)cc(=O)n1-c1cccc(Cl)c1Cl [Compound 81, (S)-6-(1-amino-6-(oxetan-3-ylthio)-1,3-dihydrospiro[indene-2,4′-piperidin]-1′-yl)-3-(2,3-dichlorophenyl)-2-methylpyrimidin-4(3H)-one] |  |  |  | 0.089
C#Cc1ccc2c(c1)OC1(CCN(c3nc(C)n(-c4ccc(F)c(F)c4)c(=O)c3C)CC1)[C@@H]2N [Compound 14] | > 1 |  |  | 
C#Cc1ccc2c(c1)[C@@H](N)C1(CCN(c3cc(=O)n(-c4ccc(F)c(F)c4Cl)c(C)n3)CC1)C2 [Compound 77] |  |  | 0.056 | 
C#Cc1ccc2c(c1)OC1(CCN(c3cc(=O)n(-c4ccc(F)c(F)c4)c(C)n3)CC1)[C@@H]2N [Compound 13] | > 1 |  |  | 
C#Cc1ccc2c(c1)[C@@H](N)C1(CCN(c3cc(=O)n(-c4cccc(C#N)c4Cl)c(C)n3)CC1)C2 [Compound 267] |  |  | > 1 | 
COCC#Cc1ccc2c(c1)[C@@H](N)C1(CCN(c3cc(=O)n(-c4cccc(Cl)c4Cl)c(C(F)(F)F)n3)CC1)C2 [Compound 130] | > 1 |  |  | 
C#Cc1ccc2c(c1)OC1(CCN(c3cc(=O)n(-c4cccc(Cl)c4)c(C)n3)CC1)[C@@H]2N [Compound 18] | > 1 |  |  | 

More lines, main results first:

IC50 [1] [µM] | IC50 [2, 3] [µM] | IC50 [2, 4] [µM] | SMILES | IC50 ([2]; Homo sapiens, MIA PaCa-2, pERK1/2 (Thr202/Tyr204) HTRF, 2 hours) [µM]
0.018 | 0.364 |  | C#Cc1ccc2c(c1)[C@@H](N)C1(CCN(c3cc(=O)n(-c4cccc(SC)c4)c(C)n3)CC1)C2 [Compound 53] | 
0.739 | > 1 |  | C#Cc1ccc2c(c1)[C@@H](N)C1(CCN(c3cc(=O)n(-c4ccccc4C(F)(F)F)c(C)n3)CC1)C2 [Compound 107] | 
0.028 |  | 0.526 | C#Cc1ccc2c(c1)[C@@H](N)C1(CCN(c3cc(=O)n(-c4ccccc4Cl)c(C)n3)CC1)C2 (single isomer, unassigned) [Compound 57] | 
> 1 |  |  | C#Cc1ccc2c(c1)OC1(CCN(c3cc(=O)n(-c4ccccc4)c(C)n3)CC1)[C@@H]2N [Compound 19] | 
0.013 | > 1 |  | C#Cc1ccc2c(c1)[C@@H](N)C1(CCN(c3cc(=O)n(-c4ccnc(Cl)c4)c(C)n3)CC1)C2 [Compound 60] | 
0.011 | 0.261 |  | C#Cc1ccc2c(c1)[C@@H](N)C1(CCN(c3cc(=O)n(-c4ccc(F)c(Cl)c4)c(C)n3)CC1)C2 [Compound 45] | 
0.31 |  |  | C#Cc1ccc2c(c1)[C@@H](N)C1(CCN(c3cc(=O)n(-c4c(Cl)cccc4Cl)c(C)n3)CC1)C2 [Compound 33] | 
0.757 |  |  | C#Cc1ccc2c(c1)CC1(CCN(c3cc(=O)n(-c4ccccc4)c(C)n3)CC1)[C@@H]2N [Compound 23] | 
0.412 |  |  | C#Cc1ccc2c(c1)CC1(CCN(c3cc(=O)n(-c4cccc(Cl)c4Cl)c(C)n3)CC1)[C@@H]2N (atropisomer, axis not shown) [Compound 24] | 
0.348 |  |  | C#Cc1ccc2c(c1)CC1(CCN(c3cc(=O)n(-c4ccc(Cl)cc4)c(C)n3)CC1)[C@@H]2N [Compound 22] | 
0.541 |  |  | C#Cc1ccc2c(c1)CC1(CCN(c3cc(=O)n(-c4ccc(F)c(F)c4)c(C)n3)CC1)[C@@H]2N [Compound 21] | 
